Measured values taken from patent US20050169912A1, “Immunogenic peptides and uses thereof” (priority 2001, published 2005).

Test system: antibody in sera from Helicobacter pylori infected patients and healthy control subjects
Assay: Immunoassay detecting serum antibodies specific for individual peptide antigens
Type: binding, human
Settings: for functional specificity for the H. pylori protein: candidate sequences tested, FIGS. 4 and 5; for ability of peptide to identify Helicobacter pylori infected individuals: 30 infected patients vs 30 healthy controls, threshold control mean plus 2.5 standard deviations
Text: 1. Possible Outcomes for Peptides Screened as Antigens in Serum Antibody Assays:
1. A positive result indicating the presence of a peptide-specific antibody in patient biological fluid samples, absent evidence of antibody in samples from subjects without the microorganism or autoimmune disease (FIG. 3) indicates the tested peptide is a specific peptide (immunogen) for a targeted protein.
3. No difference in positive antibody levels between patients and subjects without disease.
2. Immunoassay Method 1: Used to Detect Serum IgA, IgD, IgE, IgG, and IgM Antibodies Specific for Individual Peptide Antigens
(§1) Peptide solution: 0.06 μg/mL peptide dissolved in 20 mM Tris chloride, pH 7.4, containing 600 mM sodium chloride, 30 mg/mL polyethylene glycol 4000, 1 mm ethylenediaminetetraacetic acid, 1 mM ethylene glycol-bis(§-aminoethyl ether)N,N,N′,N′-tetraacetic acid, 0.5 mg/mL triton x-405 and 0.2 mg/mL thimerosal.
as §1, with “Control peptide” for “Peptide”, “0.013” for “0.06”, “μg/mL control” for “μg/mL”
Conjugate solution: 0.100 μg/mL alkaline phosphatase conjugated polyclonal goat anti human IgG dissolved in 20 mM Tris-HCL, pH 7.40, with 600 mM sodium chloride, 30.0 mg/mL peg-4000, 3.0 mg/mL BSA, 0.5 mg/mL triton x-405 and 0.20 mg/mL thimerosal.
Substrate solution: 25.2 μg/mL 4-methylumbelliferyl phosphate dissolved in 180 mM 2-amino-2-methyl-1-propanol, pH 9.50, containing 123 μM magnesium chloride.
Serum preparation: • 1. Add 100 μl serum to 15 neutravidin^a coated paper discs in a suitably sized test tube. • 2. Incubate with gentle mixing at ambient temperature for 16-20 hours. • 3. Add 7.9 mL of serum diluent and mix gently for 30 minutes. • 4. Vortex the tube gently to completely release the serum from the discs. • 5. Remove the treated serum from the discs and transfer it to a suitable storage tube. • 6. Store the treated serum at 4 EC.
Assay procedure: • 1. Two days before assay, aspirate the storage solution from the NeutrAvidin^a coated white microtiter plate and add 200 μl plate blocking solution to each well. • 2. Cover the plate and incubate at ambient temperature for 16-20 hours. • 3. One day before assay. Wash the blocked plate three times with plate wash buffer, approximately 275 μl per well per wash. Aspirate the final wash and add 100 μl peptide solution or 100 μl control peptide solution to the appropriate wells of the plate. • 4. Cover the plate and incubate with gentle mixing at ambient temperature for 16-20 hours. • 5. Day of assay, wash the blocked plate three times with plate wash buffer, approximately 275 μl per well per wash. Aspirate the final wash and add 100 μl treated serum to the appropriate wells of the plate. • 6. Cover the plate and incubate at 25 EC for 2 hours. • 7. Wash the blocked plate six times with plate wash buffer, approximately 275 μl per well per wash. Aspirate the final wash and add 100 μl conjugate solution to each assay well. • 8. Cover the plate and incubate at 25 EC for 1.5 hours. • 9. Wash the blocked plate six times with plate wash buffer, approximately 275 μl per well per wash. Aspirate the final wash and add 100 μl substrate solution to each assay well. • 10. Read the plate at 30 and 60 minutes in a fluorescence microtiter plate reader set at 365 nm excitation and 450 nm emission. 3. Biotinylation of Human Serum Albumin

Sequence | functional specificity for the H. pylori protein | detection of fluids from infected persons (Example 1, FIGS. 3-5) | Helicobacter pylori infected individuals identified by the peptide (sera from 30 H. pylori infected patients, positive/negative threshold control mean) | control sera identified as positive for the peptide (sera from 30 healthy control subjects, antibodies to the peptide) | ability of peptide to identify Helicobacter pylori infected individuals
KNLESYQKDA | not functionally specific |  |  |  | 
MQEIDKKLTQKN |  | detected fluids from infected persons | three | no control sera were incorrectly identified as positive | 
QKDAKECKGKRN |  |  |  |  | does not serve to identify Helicobacter pylori infected individuals
QKDAKELKGKRN | not functionally specific |  |  |  | does not serve to identify Helicobacter pylori infected individuals
